“Also recorded” adds a separate entry of the source. Like-named read-outs stand apart in the source and are kept apart here.
Experiments:
Neuro2a cells [1] = assay: Cell death suppression by D-cycloserine combined with edaravone in TDP-43-transfected Neuro2a cells (Example 1); format: cell-based; conditions: Mus musculus, N2a
Procedure: Neuro2a cells were seeded on a dish. On the first day after seeding, differentiation into neurons was initiated. On the fourth day after seeding, cells were transfected with the TDP-43 gene. […] The proportion of dead cells was evaluated 7 days after the cells were transfected with the TDP-43 gene. […] Here, the relative viability indicates the proportion of the number of viable cells overexpressing TDP-43 based on 100% of the number of viable cells not overexpressing TDP-43. […] The CI was calculated using the following formula. […] CI=1 indicates an additive effect, CI>1 indicates an antagonistic effect, and CI<1 indicates a synergistic effect.

TDP-43 [2] = assay: Soluble/insoluble TDP-43 fractions in motor neurons derived from iPS cells of healthy subjects, western blot (Reference Example 4); format: cell-based, human; conditions: 10 µmol/L, cultured for 20 days (Figure 7)
Procedure: 100 µL of an EHS-gel basement membrane matrix (commercially available from FUJIFILM Wako Pure Chemical Corporation) was added to 12.5 mL of DMEM (Dulbecco's Modified Eagle Medium, commercially available from FUJIFILM Wako Pure Chemical Corporation) and mixed, and the mixture was added to a 24-well plate at 600 µL per well. The plate was left at room temperature for 2 hours, and the solution was then removed from the wells. Next, 600 µL of DMEM was added to each well, and the plate was left at room temperature for 2 hours.
Motor neurons derived from iPS cells of healthy subjects and motor neurons derived from iPS cells of ALS patients were obtained from iXCells Biotechnologies. The motor neurons were quickly thawed in a thermostatic oven at 37°C and suspended in a motor neuron maintenance culture medium (iXCells Biotechnologies). […]
The soluble protein fractions and the insoluble protein fractions were subjected to SDS-PAGE, and the proteins were transferred to a PVDF membrane. […] Next, the PVDF membrane was washed three times with a buffer solution, 1 mL of a luminescence reagent (ImmunoStar LD, commercially available from FUJIFILM Wako Pure Chemical Corporation) was then used to induce luminescence from the labeled secondary antibodies, and the PVDF membrane was imaged.

Neuro2a cells [3] = assay: Suppression of cell death in TDP-43-transfected Neuro2a cells (Reference Example 2); format: cell-based, Mouse; conditions: 10 to 10,000 nmol/L added 5 hours after transfection; evaluated 7 days after transfection (Figures 3, 4)
Procedure: Neuro2a cells were seeded on a dish. On the first day after seeding, differentiation into neurons was initiated. On the fourth day after seeding, cells were transfected with the TDP-43 gene. […] In addition, as a control, 10 nmol/L, 50 nmol/L, 100 nmol/L, 500 nmol/L, 1,000 nmol/L, 5,000 nmol/L, or 10,000 nmol/L of ropinirole was added to a culture medium.
The proportion of dead cells was evaluated 7 days after the cells were transfected with the TDP-43 gene.

TDP-43 [4] = assay: Soluble/insoluble TDP-43 fractions in motor neurons derived from iPS cells of ALS patients, western blot (Reference Example 4); format: cell-based, human; conditions: 10 µmol/L; for bands for insoluble fractions of TDP-43: cultured for 20 days (Figure 7); for average proportion of insoluble fractions of TDP-43: cultured for 20 days, three experiments, untreated ALS about 46.1%, healthy about 7.4%
[5] = cited from earlier work
TDP-43 [6] = assay: Soluble/insoluble TDP-43 fractions in TDP-43-transfected Neuro2a cells, western blot (Reference Example 3); format: cell-based, Mouse; conditions: 10 µmol/L added 6 hours after transfection; for number of soluble fractions versus insoluble fractions of TDP-43: cultured for 12 hours (Figure 5); for proportion of insoluble fractions based on total of soluble and insoluble fractions of TDP-43: cultured for 12 hours (Figure 6)
Procedure: Mouse neuroblastoma (Neuro2a) cells were seeded on a dish. The Neuro2a cells were cultured in a culture medium containing DMEM+10% FBS at 37°C in the presence of 5% CO2. On the first day after seeding, differentiation into neurons was initiated. Differentiation into neurons was performed in a culture medium containing DMEM+2% FBS+20 µmol/L retinoic acid. On the fourth day after seeding, cells were transfected with synthesized TDP-43 mRNA by a lipofection method. Cells were sampled at 6 hours, 9 hours, 12 hours, 15 hours, 18 hours, and 21 hours after transfection. […] For sampling, cells were lysed in an RIPA buffer and centrifuged at 22,000×g for 30 minutes at 4°C, the supernatant was used as the soluble fraction, the precipitate was used as the insoluble fraction, and equal volumes of a 2×SDS sample buffer were added to the respective fractions and heated at 95°C for 5 minutes to prepare electrophoresis samples. The electrophoresis samples were subjected to electrophoresis using a polyacrylamide gel, TDP-43 was then transferred to a PVDF membrane. TDP-43 was detected through chemiluminescence using anti-TDP-43 antibodies as primary antibodies and HRP-conjugated anti-rabbit antibodies as secondary antibodies. […] The insoluble fractions of TDP-43 indicate the aggregation of TDP-43.
Neuro2a cells were seeded on a dish. On the first day after seeding, differentiation into neurons was initiated. On the fourth day after seeding, cells were transfected with the TDP-43 gene.

[7] = Reported human pharmacokinetics of D-cycloserine; format: in vivo, humans; conditions: estimated; 15 mg orally administered twice daily
[8] = cited from earlier work; remark: listed apart in the source

SMILES	EC50 (Neuro2a cells [1]; read-out: EC50 of the cell death suppressory effect of D-cycloserine, at 0 nmol/L of edaravone) [nM]	EC50 (Neuro2a cells [1]; read-out: EC50 of the cell death suppressory effect of D-cycloserine, at 10 nmol/L of edaravone) [nM]	EC50 (Neuro2a cells [1]; read-out: EC50 of the cell death suppressory effect of D-cycloserine, at 30 nmol/L of edaravone) [nM]	EC50 (Neuro2a cells [1]; read-out: EC50 of the cell death suppressory effect of D-cycloserine, at 100 nmol/L of edaravone) [nM]	EC50 (Neuro2a cells [1]; read-out: EC50 of the cell death suppressory effect of D-cycloserine, at 300 nmol/L of edaravone) [nM]	EC50 (Neuro2a cells [1]; read-out: EC50 of the cell death suppressory effect of D-cycloserine, at 1,000 nmol/L of edaravone) [nM]	bands for insoluble fractions of TDP-43 (TDP-43 [2])	cell death in cells transfected with the TDP-43 gene (Neuro2a cells [3])	bands for insoluble fractions of TDP-43 (TDP-43 [4])	average proportion of insoluble fractions of TDP-43 (TDP-43 [4])	side effects ([5]; 150 mg administered to humans)	side effects ([5]; 250 mg administered to humans to treat tuberculosis)	number of soluble fractions versus insoluble fractions of TDP-43 (TDP-43 [6])	proportion of insoluble fractions based on total of soluble and insoluble fractions of TDP-43 (TDP-43 [6])	trough value [7] [nmol/L]	Cmax ([8]; 15 mg orally administered to humans, read-out: maximum blood concentration (Cmax)) [µM]	half-life ([8]; in vivo)
N[C@@H]1CONC1=O [D-cycloserine, (4R)-4-Amino-1,2-oxazolidin-3-one]	151	149	135	119	107	87.6	bands for insoluble fractions were unclear	cell death was inhibited; also recorded: exhibited an effect of inhibiting cell death in a concentration-dependent manner	bands for insoluble fractions were unclear	about 17.4%	headaches	serious side effects such as epileptiform seizure and mental confusion	the number of soluble fractions of TDP-43 was larger than the number of insoluble fractions of TDP-43	less than half	> 128	~5.6	about 10 hours
N[C@H]1CONC1=O [L-cycloserine, (4S)-4-amino-1,2-oxazolidin-3-one]								exhibited an effect of inhibiting cell death in a concentration-dependent manner					the number of soluble fractions of TDP-43 was larger than the number of insoluble fractions of TDP-43	less than half			
CCCN(CCC)CCc1cccc2c1CC(=O)N2 [ropinirole]							bands for insoluble fractions were unclear		bands for insoluble fractions were unclear	about 19.3%							

From patent EP4763206A1, “AGENT FOR SUPPRESSING AGGREGATION OF TDP-43, AGENT FOR SUPPRESSING CELL DEATH OF CELLS IN WHICH TDP-43 IS OVEREXPRESSED, AND AGENT FOR PREVENTING OR TREATING DISEASES ASSOCIATED WITH AGGREGATION OF TDP-43” (Socium Inc., priority 2023, dated 2025)
